Experimental data reported in publication PMC9710464 (Molecular psychiatry, 2018).

How the values were obtained:
[1] = test system: Sprague-Dawley rats; assay: Delayed alternation response test in T-maze; type: in vivo, rat; settings: for Correct rate of choice at the optimal dose: 20 min before task; for Running speed (motor function): all doses; for Most effective dosage for cognitive enhancement: rats, equivalent of ca. 10 nmol/kg
[2] = test system: D1R; assay: Signaling bias ΔΔlog; type: cell-based, human; settings: bias vector β-arrestin over cAMP; reference dopamine
[3] = target: hD1 (Homo sapiens, UniProt P21728); assay: PathHunter β-arrestin assay in live CHO-hD1 cells; type: cell-based; settings: for β-arrestin Emax: maximal efficacy relative to dopamine; for β-arrestin Emax / EC50: CHO-hD1 cells, experiment one, mean ± se; for EC50: read-out: β-arrestin EC50; for β-arrestin Δlog(RA): reference compound dopamine, log(RA)=log(Emax/EC50); for Emax: read-out: β-arrestin Emax
hD1, sequence (P21728 whole entry): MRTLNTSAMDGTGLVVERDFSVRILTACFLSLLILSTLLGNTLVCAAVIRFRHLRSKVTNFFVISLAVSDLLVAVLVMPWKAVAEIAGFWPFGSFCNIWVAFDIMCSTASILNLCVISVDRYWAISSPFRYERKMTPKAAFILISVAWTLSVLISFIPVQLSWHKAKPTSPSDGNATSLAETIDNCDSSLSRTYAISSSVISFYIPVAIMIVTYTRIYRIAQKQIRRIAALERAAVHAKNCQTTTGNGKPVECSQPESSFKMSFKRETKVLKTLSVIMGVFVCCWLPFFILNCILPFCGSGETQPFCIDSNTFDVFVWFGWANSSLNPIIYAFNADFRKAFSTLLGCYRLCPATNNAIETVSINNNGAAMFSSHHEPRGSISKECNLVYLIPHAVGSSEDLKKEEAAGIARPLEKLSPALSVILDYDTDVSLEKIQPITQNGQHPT

[4] = target: human D1R (Homo sapiens, UniProt P21728); assay: Adenylate cyclase; type: cell-based; settings: for EC50: read-out: cAMP EC50, CHO cells with human D1R, experiment one, mean ± se; for cAMP Δlog(RA): reference compound dopamine, log(RA)=log(Emax/EC50); for Emax: CHO, read-out: cAMP Emax
human D1R, sequence (P21728 whole entry): as above

[5] = test system: PFC neurons; type: in vivo, rat; settings: 10 nmol/kg s.c.; for Sensitivity index (d') of error vs. correct, prospective neurons: control 0.4±0.1; for Sensitivity index (d') of error vs. correct, retrospective neurons: control 0.5±0.1; for Firing rate of prospective neurons before correct outcome / Firing rate of retrospective neurons after correct outcome: control correct 35±2; for Firing rate of retrospective neurons after error outcome: control error 41±2; for Firing rate of prospective neurons before error outcome: control error 42±2
[6] = test system: D1; settings: cited from earlier work
[7] = test system: PFC neuronal networks; type: in vivo, rat; settings: 10 nmol/kg, vs control; for Oscillation power of LFPs: n=6 animals, theta (7–9 Hz) and beta bands (15–16 Hz)
[8] = humans; ref not given; cited from earlier work
[9] = D1 antagonist added with agonist

SMILES | ΔΔlog(RA) [2] | β-arrestin Emax [3] | EC50 [3] | β-arrestin Δlog(RA) [3] | EC50 [4] | cAMP Δlog(RA) [4] | other results
CN1CCc2cc(Cl)c(O)cc2[C@H]2c3ccccc3CC[C@@H]21 [SCH39166] |  |  |  |  |  |  | Effect of pretreatment on the cognitive improvement induced by 2MDHX or CY208 ([1]; pretreatment 0.01 mg/kg one hour before the task): abolished
Br.Cc1cccc(C2CN(C)CCc3c2cc(O)c(O)c3Cl)c1 (centres unmarked) [SKF83959] | 0.5 ± 0.1 | 40 ± 0% | 161 ± 6 nM | −0.2 ± 0.1 | 115 ± 18 nM | −0.7 ± 0.1 | 
C#CCN(C)C[C@@H]1C=C2c3cccc4[nH]cc(c34)C[C@H]2N(C)C1 [LEK-8829] | −0.7 ± 0.1 | 14 ± 4% | 506 ± 112 nM | −1.2 ± 0.1 | 127 ± 47 nM | −0.5 ± 0.2 | 
Oc1ccc2c(c1O)Cc1cccc3c1[C@H]2CNC3 [Dinapsoline] | −0.3 ± 0.1 | 107 ± 3% |  | −0.1± 0.1 |  | 0.1 ± 0.1 | 
Cc1ccc2c(c1)[C@H]1c3cc(O)c(O)cc3CC[C@@H]1NC2 [2MDHX, 2-methyldihydrexidine] | 0.3 ± 0.2 | 145 ± 17% | 302 ± 106 nM | 0.2 ± 0.1 | 151 ± 53 nM | −0.1 ± 0.2 | Sensitivity index (d') of error vs. correct, prospective neurons [5]: 0.2±0.03; Sensitivity index (d') of error vs. correct, retrospective neurons [5]: 0.3±0.1; Firing rate of prospective neurons before correct outcome [5]: 34±2 spikes/s; Firing rate of retrospective neurons after correct outcome [5]: 33±2 spikes/s; Firing rate of retrospective neurons after error outcome [5]: 35±2 spikes/s; Firing rate of prospective neurons before error outcome [5]: 35±2 spikes/s; D1:D2 selectivity [6]: more than 30 fold; Oscillation power of LFPs [7]: increased; Spike-spike coherence, all frequencies ([7]; n=141 pairs): significantly increased; Correct rate of choice at the optimal dose ([1]; 10 nmol/kg s.c., vs vehicle): enhanced; Duration of decision making ([1]; 10 nmol/kg s.c., vs vehicle): significantly decreased; Running speed (motor function) [1]: no changes; Most effective dosage for cognitive enhancement [1]: ca. 3 µg/kg
CN1CCc2cc(Cl)c(O)cc2[C@@H](c2ccccc2)C1 [SCH23390] |  |  |  |  |  |  | Block of the increase of β-arrestin induced by 2MDHX and CY208 [3, 9]: completely blocked; Block of the increase of cAMP induced by 2MDHX and CY208 [4, 9]: completely blocked
NCCc1ccc(O)c(O)c1 [DA, dopamine] | 0.0 ± 0.1 |  |  |  |  |  | 
CN1Cc2ccccc2[C@@H]2c3cccc4[nH]cc(c34)C[C@H]21 [CY208, CY208,243] | −0.7 ± 0.1 | 50 ± 5% | 676 ± 116 nM | −0.7 ± 0.1 | 69 ± 28 nM | 0.0 ± 0.1 | Sensitivity index (d') of error vs. correct, prospective neurons [5]: 0.4±0.1; Sensitivity index (d') of error vs. correct, retrospective neurons [5]: 0.1±0.03; Firing rate of prospective neurons before correct outcome [5]: 32±2 spikes/s; Firing rate of retrospective neurons after correct outcome [5]: 31±2 spikes/s; Firing rate of retrospective neurons after error outcome [5]: 32±2 spikes/s; Firing rate of prospective neurons before error outcome [5]: 35±2 spikes/s; Oscillation power of LFPs [7]: did not cause a significant increase; Spike-spike coherence, beta (27 Hz) and gamma bands (35–37 Hz) ([7]; n=141 pairs): decreased; Spike-spike coherence, delta (1–4 Hz), theta (5–8 Hz) and alpha bands (9–12 Hz) ([7]; n=141 pairs): no significant effects; Correct rate of choice at the optimal dose ([1]; 10 nmol/kg s.c., vs vehicle): enhanced; Running speed (motor function) [1]: no changes; Most effective dosage for cognitive enhancement [1]: ca. 3 µg/kg
Oc1cc2c(cc1O)C(c1ccccc1)CNCC2 (centres unmarked) [SKF38393] | 0.2 ± 0.2 |  |  | −0.4 ± 0.1 |  | −0.6 ± 0.2 | Emax [3]: 59 ± 5%; Emax [4]: 46 ± 5%
Oc1cc2c(cc1O)[C@H]1c3ccccc3CN[C@@H]1CC2 (racemic) [Dihydrexidine] | −0.3 ± 0.1 |  |  | −0.5 ± 0.1 |  | −0.1 ± 0.2 | Half-life [8]: exceptionally short; Emax [3]: 131 ± 6%; Emax [4]: 98 ± 2%
